Reference: article PMC8119294 (Biochemistry, 2020)

Legend:
human MOP = settings: HEK 293 cells; cited from earlier work
MOP = settings: read-out: Ki at MOP; CHO cells; cited from earlier work
hMOP H321F mutant = hMOP H321F mutant (Homo sapiens, UniProt P35372, H321F); experiment: Gαi-mediated cAMP inhibition assay, hMOP H321F mutant; type: cell-based; settings: for potency reduction at His321F mutant compared to wild-type receptor: EC50 mutant vs wild type; for decrease in efficacy at His321F mutant: Emax mutant vs wild type; for Emax: normalized to Emax of DAMGO
Chain of hMOP H321F mutant (P35372 whole entry H321F): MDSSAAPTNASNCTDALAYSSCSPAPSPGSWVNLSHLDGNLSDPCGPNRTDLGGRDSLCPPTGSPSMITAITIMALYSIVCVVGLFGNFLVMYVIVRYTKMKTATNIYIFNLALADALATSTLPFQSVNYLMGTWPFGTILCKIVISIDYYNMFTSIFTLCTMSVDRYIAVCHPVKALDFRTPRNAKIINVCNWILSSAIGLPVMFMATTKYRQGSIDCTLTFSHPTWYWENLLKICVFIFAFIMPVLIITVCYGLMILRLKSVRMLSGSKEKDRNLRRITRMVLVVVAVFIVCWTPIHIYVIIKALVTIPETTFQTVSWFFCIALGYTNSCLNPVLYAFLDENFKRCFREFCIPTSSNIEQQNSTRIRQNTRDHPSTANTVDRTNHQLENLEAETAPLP

KOP = settings: read-out: Ki at KOP; CHO cells; cited from earlier work
mice = settings: radiant heat tail flick assay; cited from earlier work
human DOP = settings: HEK 293 cells, very low potency; cited from earlier work
DOP = settings: read-out: Ki at DOP; CHO cells; cited from earlier work
hMOP Asn129K mutant = hMOP Asn129K mutant (Homo sapiens, UniProt P35372, N129K); experiment: Gαi-mediated cAMP inhibition assay, hMOP Asn129K mutant; type: cell-based; settings: for Emax: normalized to Emax of DAMGO
Chain of hMOP Asn129K mutant (P35372 whole entry N129K): as the sequence (P35372 whole entry H321F) above, with N129K, F321H counted along it

rats = settings: hot plate assay; cited from earlier work
[1] = target: human opioid receptor OPRM_HUMAN (hMOP), wild type (Homo sapiens, UniProt P35372); type: cell-based; settings: for Emax: WT hMOP, normalized to Emax of DAMGO
Chain of human opioid receptor OPRM_HUMAN (hMOP), wild type (P35372 whole entry): as the sequence (P35372 whole entry H321F) above, with F321H counted along it

human KOP = settings: HEK 293 cells; cited from earlier work
α-adrenergic receptors = settings: read-out: Ki for α-adrenergic receptors; cited from earlier work
opioid receptors = settings: read-out: Ki for opioid receptors; cited from earlier work
[2] = HEK 293T cells, hMOP H321F mutant, cAMP assay, Gi
[3] = HEK 293T cells, hMOP Asn129K mutant, cAMP assay, Gi
[4] = HEK 293T cells, wild type (WT) hMOP, cAMP assay, Gi

Compound | functional activity at human MOP (human MOP) | Ki (MOP) [nM] | potency reduction at His321F mutant compared to wild-type receptor (hMOP H321F mutant; cAMP assay) [fold] | decrease in efficacy at His321F mutant (hMOP H321F mutant; cAMP assay) [%] | Emax (hMOP H321F mutant; hMOP H321F mutant) [%] | Ki (KOP) [nM] | analgesic effect compared to morphine (mice) | functional activity at human DOP (human DOP) | Ki (DOP) [nM] | Emax (hMOP Asn129K mutant; hMOP Asn129K mutant) [%] | analgesic effect compared to morphine (rats) | Emax [1] [%] | functional activity at human KOP (human KOP) | other results
CC[C@@H]1CN2CC[C@@]3(O)C(=Nc4cccc(OC)c43)[C@@H]2C[C@@H]1/C(=C\OC)C(=O)OC [7OH, 7-hydroxymitragynine] | partial agonists | 37 ± 4 | 2.5 | > 25 | 60 ± 9 | 132 ± 7 | significantly more potent than morphine | competitive antagonists | 91 ± 8 | 92 ± 3.2 | significantly more potent than morphine | 89±3.8 | competitive antagonists | potency reduction at Asn129K mutant compared to wild-type receptor (hMOP Asn129K mutant; EC50 mutant vs wild type, cAMP assay): 5 fold
CC[C@@H]1CN2CC[C@]3(Nc4cccc(OC)c4C3=O)[C@@H]2C[C@@H]1/C(=C\OC)C(=O)OC [MP, mitragynine pseudoindoxyl] | – | 0.8 ± 0.2 | 32 | > 25 | 58.9 ± 6.7 | 24 ± 0.9 | – | – | 3 ± 1.3 | 88 ± 2.97 | – | 81±3.6 | – | EC50 (hMOP H321F mutant; [2]): 16.9 nM; pEC50 ± SEM (hMOP H321F mutant; [2]): 7.77 ± 0.27; potency relative to morphine (mice): 1.5 fold; EC50 (hMOP Asn129K mutant; [3]): 0.9 nM; pEC50 ± SEM (hMOP Asn129K mutant; [3]): 9.04 ± 0.084; EC50 [1, 4]: 0.55 nM; pEC50 ± SEM [1, 4]: 9.28±0.11
mitragynine [MG] | partial agonists | 230 ± 47 | – | – | – | – | significantly lower than morphine | competitive antagonists | – | – | significantly lower than morphine | – | competitive antagonists | Ki (α-adrenergic receptors): 1340 to 9290 nM; Ki (opioid receptors): 161 to 198 nM
